What was measured:
physchem [1] = settings: octanol/water, pH 7.4
physchem [2] = assay: physchem
Renin [3] = target: T1, Renin (Callithrix jacchus, UniProt Q9TSZ1); format: cell-free, Plasma
T1 sequence (Q9TSZ1 whole entry): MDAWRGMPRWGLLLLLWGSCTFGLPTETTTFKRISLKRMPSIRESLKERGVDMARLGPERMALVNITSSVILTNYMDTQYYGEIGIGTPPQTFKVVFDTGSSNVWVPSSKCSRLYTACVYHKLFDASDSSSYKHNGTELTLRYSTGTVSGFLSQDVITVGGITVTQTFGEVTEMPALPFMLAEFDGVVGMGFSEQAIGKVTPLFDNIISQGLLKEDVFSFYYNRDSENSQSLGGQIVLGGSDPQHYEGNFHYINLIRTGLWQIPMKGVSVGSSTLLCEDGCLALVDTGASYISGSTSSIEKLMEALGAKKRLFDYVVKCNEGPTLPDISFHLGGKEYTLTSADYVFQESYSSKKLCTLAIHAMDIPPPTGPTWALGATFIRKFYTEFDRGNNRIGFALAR

Renin [4] = target: T2, Renin (Homo sapiens, UniProt P00797)
T2 sequence (P00797 whole entry): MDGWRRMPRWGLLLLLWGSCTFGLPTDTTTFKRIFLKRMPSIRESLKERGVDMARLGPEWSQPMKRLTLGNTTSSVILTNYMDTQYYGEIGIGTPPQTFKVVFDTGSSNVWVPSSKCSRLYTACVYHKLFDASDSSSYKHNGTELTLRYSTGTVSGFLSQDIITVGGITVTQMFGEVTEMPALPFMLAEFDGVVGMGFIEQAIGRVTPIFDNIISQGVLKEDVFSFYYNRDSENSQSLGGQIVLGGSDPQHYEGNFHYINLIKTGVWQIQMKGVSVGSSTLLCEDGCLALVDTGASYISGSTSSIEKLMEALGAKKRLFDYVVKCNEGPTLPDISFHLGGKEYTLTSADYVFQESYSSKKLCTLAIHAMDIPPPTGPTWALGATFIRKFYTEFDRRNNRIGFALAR

in vivo [5] = settings: marmoset, po, 3 mg/kg
Renin [6] = target: T2, Renin; remark: listed apart in the source
Callithrix jacchus = species: Callithrix jacchus; format: functional, Plasma
physchem [7] = settings: water
in vivo [8] = settings: rat, po
in vivo [9] = settings: dog, po
Cathepsin E = target: T3, Cathepsin E (Homo sapiens, UniProt P14091)
T3 sequence (P14091 whole entry): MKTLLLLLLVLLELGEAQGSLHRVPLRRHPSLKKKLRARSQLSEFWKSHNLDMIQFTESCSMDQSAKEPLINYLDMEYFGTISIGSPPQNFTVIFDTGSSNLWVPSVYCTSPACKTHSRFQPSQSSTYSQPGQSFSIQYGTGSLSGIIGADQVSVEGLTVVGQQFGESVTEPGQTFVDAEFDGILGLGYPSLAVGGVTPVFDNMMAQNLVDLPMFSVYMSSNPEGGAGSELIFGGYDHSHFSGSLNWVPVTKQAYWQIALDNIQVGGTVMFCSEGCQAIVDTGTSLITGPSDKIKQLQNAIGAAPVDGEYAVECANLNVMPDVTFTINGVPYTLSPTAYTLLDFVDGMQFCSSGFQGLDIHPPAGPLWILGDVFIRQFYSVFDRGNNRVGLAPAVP

Cathepsin D = Cathepsin D (Homo sapiens, UniProt P07339)
Beta-secretase 1 = Beta-secretase 1 (Homo sapiens, UniProt P56817)
in vivo [10] = settings: marmoset
Pepsin A = Pepsin A (Homo sapiens, UniProt P0DJD9)
physchem [11] = assay: physchem; remark: listed apart in the source
physchem [12] = settings: octanol/water, pH 6.8
physchem [13] = settings: buffer, pH 7.4

Chain of Beta-secretase 1 (P56817 whole entry): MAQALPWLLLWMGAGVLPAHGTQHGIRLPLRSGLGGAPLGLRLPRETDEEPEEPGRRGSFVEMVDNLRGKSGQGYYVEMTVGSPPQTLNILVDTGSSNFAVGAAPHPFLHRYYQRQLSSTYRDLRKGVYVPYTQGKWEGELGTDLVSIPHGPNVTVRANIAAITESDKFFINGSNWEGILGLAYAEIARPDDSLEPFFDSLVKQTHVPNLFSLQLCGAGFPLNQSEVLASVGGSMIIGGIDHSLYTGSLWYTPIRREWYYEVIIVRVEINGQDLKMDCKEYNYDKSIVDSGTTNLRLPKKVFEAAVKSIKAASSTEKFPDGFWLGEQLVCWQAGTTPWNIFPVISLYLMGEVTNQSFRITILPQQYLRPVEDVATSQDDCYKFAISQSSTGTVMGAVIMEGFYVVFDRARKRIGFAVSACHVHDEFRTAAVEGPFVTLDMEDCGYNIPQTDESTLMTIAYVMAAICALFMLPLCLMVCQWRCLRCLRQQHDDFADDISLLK
Chain of Cathepsin D (P07339 65-162 limits assumed): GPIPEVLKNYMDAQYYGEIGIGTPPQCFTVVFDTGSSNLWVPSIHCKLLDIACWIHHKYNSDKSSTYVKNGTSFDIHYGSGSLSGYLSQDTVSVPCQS
Chain of Cathepsin D (P07339 169-412 limits assumed): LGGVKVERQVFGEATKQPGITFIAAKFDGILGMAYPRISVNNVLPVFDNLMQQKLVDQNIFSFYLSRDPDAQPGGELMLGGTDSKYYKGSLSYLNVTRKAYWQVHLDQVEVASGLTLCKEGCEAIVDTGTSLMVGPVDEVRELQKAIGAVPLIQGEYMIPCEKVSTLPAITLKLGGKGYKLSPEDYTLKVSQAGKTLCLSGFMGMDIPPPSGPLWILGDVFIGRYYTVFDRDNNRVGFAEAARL
Chain of Pepsin A (P0DJD9 whole entry): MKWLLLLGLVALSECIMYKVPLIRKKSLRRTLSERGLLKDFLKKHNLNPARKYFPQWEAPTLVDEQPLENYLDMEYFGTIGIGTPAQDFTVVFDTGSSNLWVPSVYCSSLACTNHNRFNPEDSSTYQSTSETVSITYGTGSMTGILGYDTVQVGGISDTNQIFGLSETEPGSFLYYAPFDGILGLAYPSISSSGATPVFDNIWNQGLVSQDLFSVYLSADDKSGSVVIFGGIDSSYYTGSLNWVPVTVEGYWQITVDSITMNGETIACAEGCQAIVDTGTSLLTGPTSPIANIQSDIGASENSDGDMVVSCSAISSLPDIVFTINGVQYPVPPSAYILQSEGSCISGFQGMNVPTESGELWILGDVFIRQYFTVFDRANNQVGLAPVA

Compound | IC50 (Renin [3]) [nM] | IC50 (Renin [4]) [nM] | IC50 (Renin [6]) [nM] | also measured
COCCCOc1cc(C[C@@H](C[C@H](N)[C@@H](O)C[C@H](C(=O)NCCC(=O)N(C)C)C(C)C)C(C)C)ccc1OC | – | – | – | logD (physchem [1]): 2.48; pKa (physchem [2]): 9.4
COCCCCc1cc(C[C@@H](C[C@H](N)[C@@H](O)C[C@H](C(=O)NCCN2CCOCC2)C(C)C)C(C)C)ccc1OC.Cl | 1 | 0.9 | 2 | logD (physchem [1]): 2.85; bioavailability (in vivo [5]): 30%; pKa (physchem [2]): 6.01
COCCCCc1cc(C[C@@H](C[C@H](N)[C@@H](O)C[C@H](C(=O)NCC(C)(C)C(N)=O)C(C)C)C(C)C)ccc1OC.Cl | 4 | 3 | 1 | logD (physchem [1]): 3.31; bioavailability (in vivo [5]): 8%; pKa (physchem [2]): 9.44
CNC(=O)C(C)(C)CNC(=O)[C@@H](C[C@H](O)[C@@H](N)C[C@H](Cc1ccc(OC)c(OCCCOC)c1)C(C)C)C(C)C.Cl | 2 | 0.7 | 0.4 | bioavailability (in vivo [5]): 25%
COCCCOc1cc(C[C@@H](C[C@H](N)[C@@H](O)C[C@H](C(=O)NC[C@@H]2CCC(=O)N2)C(C)C)C(C)C)ccc1OC.Cl | 3 | 0.9 | 0.6 | bioavailability (in vivo [5]): 22%
COCCCOc1cc(C[C@@H](C[C@H](N)[C@@H](O)C[C@H](C(=O)NC(C)(C)CN2CCOCC2)C(C)C)C(C)C)ccc1OC | – | 27 | 16 | –
CC[C@H](NC(=O)[C@@H](C[C@H](O)[C@@H](N)C[C@H](Cc1ccc(OC)c(OCCCOC)c1)C(C)C)C(C)C)C(N)=O | 1 | – | 0.8 | –
COCCCOc1cc(C[C@@H](C[C@H](N)[C@@H](O)C[C@H](C(=O)N[C@@H](CO)C(N)=O)C(C)C)C(C)C)ccc1OC | 6 | 3 | 2 | –
COCCCOc1cc(C[C@@H](C[C@H](N)[C@@H](O)C[C@H](C(=O)NC(C)(C)C(N)=O)C(C)C)C(C)C)ccc1OC | 200 | 100 | 13 | –
COCCCOc1cc(C[C@@H](C[C@H](N)[C@@H](O)C[C@H](C(=O)NCCC(=O)N(C)C)C(C)C)C(C)C)ccc1OC.Cl | – | – | – | bioavailability (in vivo [5]): 14%
COCCCOc1cc(C[C@@H](C[C@H](N)[C@@H](O)C[C@H](C(=O)N[C@@H](C)CC(N)=O)C(C)C)C(C)C)ccc1OC | 3 | 2 | 1 | –
COCCCOc1cc(C[C@@H](C[C@H](N)[C@@H](O)C[C@H](C(=O)NCCN2CCOCC2)C(C)C)C(C)C)ccc1OC | 3 | 1 | 0.4 | –
COCCCOc1cc(C[C@@H](C[C@H](N)[C@@H](O)C[C@H](C(=O)NCCc2nn[nH]n2)C(C)C)C(C)C)ccc1OC | 2 | 2 | 2 | –
COCCCOc1cc(C[C@@H](C[C@H](N)[C@@H](O)C[C@H](C(=O)NC(C)CN2CCOCC2)C(C)C)C(C)C)ccc1OC (stereo partly specified) | 9 | – | 3 | –
COCCCOc1cc(C[C@@H](C[C@H](N)[C@@H](O)C[C@H](C(=O)N[C@H](C)CC(N)=O)C(C)C)C(C)C)ccc1OC | 28 | 57 | 6 | –
CCCCNC(=O)[C@@H](C[C@H](O)[C@@H](N)C[C@H](Cc1ccc(OC)c(OCCCOC)c1)C(C)C)C(C)C.Cl | – | – | – | Inhibition (Callithrix jacchus): 79%
COCCCOc1cc(C[C@@H](C[C@H](N)[C@@H](O)C[C@H](C(=O)NCC(C)(C)C(=O)O)C(C)C)C(C)C)ccc1OC | 13 | 13 | 3 | –
COCCCOc1cc(C[C@@H](C[C@H](N)[C@@H](O)C[C@H](C(=O)NCCCN2CCOCC2)C(C)C)C(C)C)ccc1OC | 3 | 3 | 3 | –
COCCCOc1cc(C[C@@H](C[C@H](N)[C@@H](O)C[C@H](C(=O)NC[C@H]2CCC(=O)N2)C(C)C)C(C)C)ccc1OC.Cl | 2 | 1 | 2 | logD (physchem [1]): 2.06; solubility (physchem [7]): > 100 mg/mL; pKa (physchem [2]): 9.09
COCCCOc1cc(C[C@@H](C[C@H](N)[C@@H](O)C[C@H](C(=O)NCC(C)(C)N2CCOCC2)C(C)C)C(C)C)ccc1OC | 18 | 2 | 0.6 | –
COCCCOc1cc(C[C@@H](C[C@H](N)[C@@H](O)C[C@H](C(=O)NCC(C)(C)C(N)=O)C(C)C)C(C)C)ccc1OC.Cl | – | – | – | bioavailability (in vivo [8]): 2.4%; bioavailability (in vivo [9]): 32%; IC50 (Cathepsin E): > 10 µM; IC50 (Cathepsin D): > 10 µM; IC50 (Beta-secretase 1): > 10 µM; half-life (in vivo [10]): 522 min; IC50 (Pepsin A): > 10 µM; bioavailability (in vivo [5]): 16%
COCCCOc1cc(C[C@@H](C[C@H](N)[C@@H](O)C[C@H](C(=O)NCC(C)(C)C(N)=O)C(C)C)C(C)C)ccc1OC.COCCCOc1cc(C[C@@H](C[C@H](N)[C@@H](O)C[C@H](C(=O)NCC(C)(C)C(N)=O)C(C)C)C(C)C)ccc1OC.O=C(O)/C=C/C(=O)O [ALISKIREN FUMARATE] | – | – | – | logD (physchem [1]): 2.5; solubility (physchem [11]): 440 µg/mL; logD (physchem [12]): 0.1; solubility (physchem [13]): > 100 mg/mL; pKa (physchem [2]): 9.2
